According to ChEMBL document CHEMBL1147351, “Sesquiterpenoids and norsesquiterpenoids from the soft coral Lemnalia africana” (J Nat Prod, 1993):
Calls of active or inactive are those of the source. The rule behind the calls is not given here.

What was measured:
P388 = experiment: Cytotoxicity against mouse P388 cells at 1 ug/ml; type: functional, cell-based
[1] = Cytotoxicity against african green monkey CV1 cells; type: cell-based; conditions: chlorocebus aethiops, cv-1

In the case of C[C@H]1CCC=C2CCC(C(C)(O)CO)=C[C@@]21C (some centres not stated), the Activity (P388) was “Active” and the Activity [1] was 10 µg/mL.
